Measured values: PubChem BioAssay AID1963825 (Molecular Pharmacology Branch, DTP, NCI, 2024)

Assay: Anticancer human tumor 997537-175-T-J1-PDC patient-derived colon adenocarcinoma cell line growth inhibition [POLQ]
Settings: 997537-175-T-J1-PDC complex spheroid viability, combination with POLQ inhibitors; for IC50: curve of first compound; for viability, T/C: stronger effect = lower value; active means viability on the fitted dose curve at most 10% of control; inactive means the rest
Outline: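 PDC + HUVEC + MSC complex spheroids; POLQ inhibitors ± partner drugs; top conc. at/near clinical Cmax, else 10 microM (SN-38 1 microM), half-log dilutions; 37 degrees C, 5% CO2.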
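Further: luminescence signal used as a surrogate for viable cells; spheroids exposed to drugs for seven days before readout.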

CC[C@@]1(O)C(=O)OCc2c1cc1n(c2=O)Cc2cc3c(CN(C)C)c(O)ccc3nc2-1 + COC1C(OC(N)=O)C(O)C(Oc2ccc3c(O)c(NC(=O)c4ccc(O)c(CC=C(C)C)c4)c(=O)oc3c2C)OC1(C)C
inactive: viability, T/C (second compound 0.0316 µM, first compound 0.000316 µM) 102% | viability, T/C (second compound 0.0316 µM, first compound 0.001 µM) 104% | viability, T/C (second compound 0.0316 µM, first compound 0.00316 µM) 110% | viability, T/C (second compound 0.0316 µM, first compound 0.01 µM) 103% | viability, T/C (second compound 0.0316 µM, first compound 0.0316 µM) 90.8% | viability, T/C (second compound 0.0316 µM, first compound 0.1 µM) 77.6% | viability, T/C (second compound 0.1 µM, first compound 0.000316 µM) 111% | viability, T/C (second compound 0.1 µM, first compound 0.001 µM) 101% | viability, T/C (second compound 0.1 µM, first compound 0.00316 µM) 111% | viability, T/C (second compound 0.1 µM, first compound 0.01 µM) 103% | viability, T/C (second compound 0.1 µM, first compound 0.0316 µM) 97.2% | viability, T/C (second compound 0.1 µM, first compound 0.1 µM) 68.6% | viability, T/C (second compound 0.316 µM, first compound 0.000316 µM) 96.2% | viability, T/C (second compound 0.316 µM, first compound 0.001 µM) 95% | viability, T/C (second compound 0.316 µM, first compound 0.00316 µM) 116% | viability, T/C (second compound 0.316 µM, first compound 0.01 µM) 102% | viability, T/C (second compound 0.316 µM, first compound 0.0316 µM) 105% | viability, T/C (second compound 0.316 µM, first compound 0.1 µM) 58.4% | viability, T/C (second compound 1 µM, first compound 0.000316 µM) 90.8% | viability, T/C (second compound 1 µM, first compound 0.001 µM) 92.3% | viability, T/C (second compound 1 µM, first compound 0.00316 µM) 99.6% | viability, T/C (second compound 1 µM, first compound 0.01 µM) 96.3% | viability, T/C (second compound 1 µM, first compound 0.0316 µM) 86% | viability, T/C (second compound 1 µM, first compound 0.1 µM) 76.8% | viability, T/C (second compound 3.16 µM, first compound 0.000316 µM) 101% | viability, T/C (second compound 3.16 µM, first compound 0.001 µM) 110% | viability, T/C (second compound 3.16 µM, first compound 0.00316 µM) 107% | viability, T/C (second compound 3.16 µM, first compound 0.01 µM) 92.6% | viability, T/C (second compound 3.16 µM, first compound 0.0316 µM) 81.7% | viability, T/C (second compound 3.16 µM, first compound 0.1 µM) 55.6% | viability, T/C (second compound 10 µM, first compound 0.000316 µM) 105% | viability, T/C (second compound 10 µM, first compound 0.001 µM) 105% | viability, T/C (second compound 10 µM, first compound 0.00316 µM) 107% | viability, T/C (second compound 10 µM, first compound 0.01 µM) 98.5% | viability, T/C (second compound 10 µM, first compound 0.0316 µM) 98.2% | viability, T/C (second compound 10 µM, first compound 0.1 µM) 70.2%
> 100 nM: IC50 (second compound 0.0316 µM) | IC50 (second compound 0.1 µM) | IC50 (second compound 0.316 µM) | IC50 (second compound 1 µM) | IC50 (second compound 3.16 µM) | IC50 (second compound 10 µM)
